Assay results from PubChem BioAssay AID330 (DTP/NCI, 2004).
Where “and” joins values, the source holds several entries; their conditions need not be identical. Equal values may be shown once. Toxic doses and inconclusive results are not listed.

Tested on: P388 leukemia ip, CD2F1 mice, survival T/C
Assay: NCI In Vivo Anticancer Drug Screen. Data for tumor model P388 Leukemia (intraperitoneal) in CD2F1 (CDF1) mice
Settings: endpoint: median survival time, higher = longer survival
Outline: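 Mice carrying the transplanted tumor received test compound or vehicle. Survival was recorded in each group, and the value is the treated-group measurement divided by that of the vehicle-treated control group.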

[1] = dose: 50.0 mg/kg/injection, schedule: Q01DX005 (ip), vehicle: saline with Tween-80
[2] = dose: 100.0 mg/kg/injection, schedule: Q01DX005 (ip), vehicle: saline with Tween-80
[3] = dose: 50.0 mg/kg/injection, schedule: Q01DX009 (ip), vehicle: Klucel (hydroxypropylcellulose) (HPC)
[4] = dose: 100.0 mg/kg/injection, schedule: Q01DX009 (ip), vehicle: Klucel (hydroxypropylcellulose) (HPC)
[5] = dose: 200.0 mg/kg/injection, schedule: Q01DX009 (ip), vehicle: Klucel (hydroxypropylcellulose) (HPC)
[6] = dose: 50.0 mg/kg/injection, schedule: Q01DX005 (ip), vehicle: Klucel (hydroxypropylcellulose) (HPC)
[7] = dose: 100.0 mg/kg/injection, schedule: Q01DX005 (ip), vehicle: Klucel (hydroxypropylcellulose) (HPC)
[8] = dose: 200.0 mg/kg/injection, schedule: Q01DX005 (ip), vehicle: Klucel (hydroxypropylcellulose) (HPC)
[9] = dose: 25.0 mg/kg/injection, schedule: Q01DX005 (ip), vehicle: Klucel (hydroxypropylcellulose) (HPC)
[10] = dose: 25.0 mg/kg/injection, schedule: Q01DX005 (ip), vehicle: saline with Tween-80
[11] = dose: 60.0 mg/kg/injection, schedule: Q01DX005 (ip), vehicle: saline with Tween-80
[12] = dose: 100.0 mg/kg/injection, schedule: Q04DX003 (ip), vehicle: saline

## C=CCC1CCC(=O)NC1=O (stereo not drawn)
dose: 50.0 mg/kg/injection, schedule: Q04DX002 (ip), vehicle: saline with Tween-80
  T/C: 102 % of control
dose: 100.0 mg/kg/injection, schedule: Q04DX002 (ip), vehicle: saline with Tween-80
  T/C: 102 % of control
dose: 200.0 mg/kg/injection, schedule: Q04DX002 (ip), vehicle: saline with Tween-80
  T/C: 100 % of control
dose: 400.0 mg/kg/injection, schedule: Q04DX002 (ip), vehicle: saline with Tween-80
  T/C: 112 % of control

## COC(=O)C1(C2(C(=O)OC)NC(C)=C(c3ccccc3)C(=O)O2)NC(C)=C(c2ccccc2)C(=O)O1 (stereo not drawn)
[1]
  T/C: 97 % of control
[2]
  T/C: 100 % of control
dose: 200.0 mg/kg/injection, schedule: Q01DX005 (ip), vehicle: saline with Tween-80
  T/C: 91 % of control

## C=C1C(=O)OC2(C)CCC1CC1OC1(C)CCC=C(C)CCC2O (stereo not drawn)
dose: 12.5 mg/kg/injection, schedule: Q01DX009 (ip), vehicle: Klucel (hydroxypropylcellulose) (HPC)
  T/C: 98 % of control
dose: 25.0 mg/kg/injection, schedule: Q01DX009 (ip), vehicle: Klucel (hydroxypropylcellulose) (HPC)
  T/C: 101 % of control
[3]
  T/C: 106 % of control
[4]
  T/C: 101 % of control
[5]
  T/C: 106 % of control

## COC(=O)c1cc(CC[N+](C)(C)Cc2ccccc2)c2ccccn12
dose: 6.25 mg/kg/injection, schedule: Q04DX002 (ip), vehicle: saline
  T/C: 104 % of control
dose: 12.5 mg/kg/injection, schedule: Q04DX002 (ip), vehicle: saline
  T/C: 96 % of control
dose: 25.0 mg/kg/injection, schedule: Q04DX002 (ip), vehicle: saline
  T/C: 106 % of control

## COc1ccc(/C=C/c2nc(Nc3ccc(O)c(CN4CCCCC4)c3)c3ccccc3n2)cc1
dose: 50.0 mg/kg/injection, schedule: Q01DX009 (ip), vehicle: distilled water + alcohol
  T/C: 99 % of control
dose: 100.0 mg/kg/injection, schedule: Q01DX009 (ip), vehicle: distilled water + alcohol
  T/C: 100 % of control
dose: 200.0 mg/kg/injection, schedule: Q01DX009 (ip), vehicle: distilled water + alcohol
  T/C: 91 % of control

## O=C(CC(O)(C(F)(F)F)C(F)(F)F)c1ccc(C(=O)CC(O)(C(F)(F)F)C(F)(F)F)cc1
dose: 12.5 mg/kg/injection, schedule: Q01DX009 (ip), vehicle: other
  T/C: 100 % of control
dose: 25.0 mg/kg/injection, schedule: Q01DX009 (ip), vehicle: other
  T/C: 100 % of control
dose: 50.0 mg/kg/injection, schedule: Q01DX009 (ip), vehicle: other
  T/C: 100 % of control
dose: 66.0 mg/kg/injection, schedule: Q04DX003 (ip), vehicle: other
  T/C: 95 % of control
dose: 100.0 mg/kg/injection, schedule: Q04DX003 (ip), vehicle: other
  T/C: 95 % of control
dose: 150.0 mg/kg/injection, schedule: Q04DX003 (ip), vehicle: other
  T/C: 100 % of control

## O=C1c2ccccc2C(=O)c2c(NCC3CCCN4CCCCC34)cccc21 (stereo not drawn)
[6]
  T/C: 100 % of control
[7]
  T/C: 98 % of control
[8]
  T/C: 100 % of control

## CN(C)CCn1c2nc(=O)[nH]c(=O)c-2nc2ccccc21
dose: 6.25 mg/kg/injection, schedule: Q01DX005 (ip), vehicle: Klucel (hydroxypropylcellulose) (HPC)
  T/C: 93 % of control
dose: 12.5 mg/kg/injection, schedule: Q01DX005 (ip), vehicle: Klucel (hydroxypropylcellulose) (HPC)
  T/C: 100 % of control
[9]
  T/C: 101 % of control
[6]
  T/C: 98 % of control

## CCCC1CCCCN1C (stereo not drawn)
dose: 3.12 mg/kg/injection, schedule: Q01DX005 (ip), vehicle: saline with Tween-80
  T/C: 105 % of control
dose: 6.25 mg/kg/injection, schedule: Q01DX005 (ip), vehicle: saline with Tween-80
  T/C: 105 % of control
dose: 12.5 mg/kg/injection, schedule: Q01DX005 (ip), vehicle: saline with Tween-80
  T/C: 108 % of control
[10]
  T/C: 105 % of control

## Brc1cnc2nc(Cc3cccc4ccccc34)[nH]c2c1
dose: 100.0 mg/kg/injection, schedule: Q01DX001 (ip), vehicle: saline with Tween-80
  T/C: 109 % of control
dose: 200.0 mg/kg/injection, schedule: Q01DX001 (ip), vehicle: saline with Tween-80
  T/C: 103 % of control
dose: 400.0 mg/kg/injection, schedule: Q01DX001 (ip), vehicle: saline with Tween-80
  T/C: 97 % of control

## CC(=O)Nc1ccc(C(=O)CN(Cc2ccccc2)Cc2ccccc2)cc1
[6]
  T/C: 87 % of control
[7]
  T/C: 87 % of control

## CN(CCC(C#N)c1ccccc1)Cc1ccccc1 (stereo not drawn)
[6]
  T/C: 92 % of control
[7]
  T/C: 101 % of control

## Nc1ccc2ccccc2c1N=Nc1ccccc1
[3]
  T/C: 117 % of control
[4]
  T/C: 118 % of control
[5]
  T/C: 120 % of control
dose: 400.0 mg/kg/injection, schedule: Q01DX009 (ip), vehicle: Klucel (hydroxypropylcellulose) (HPC)
  T/C: 117 % of control

## [I][Hg][CH2]C1OCCOC1[CH2][Hg][I] (stereo not drawn)
dose: 100.0 mg/kg/injection, schedule: Q04DX003 (ip), vehicle: saline with Tween-80
  T/C: 118 % of control
dose: 200.0 mg/kg/injection, schedule: Q04DX003 (ip), vehicle: saline with Tween-80
  T/C: 118 % of control
dose: 400.0 mg/kg/injection, schedule: Q04DX003 (ip), vehicle: saline with Tween-80
  T/C: 90 % of control

## CS(C)(O)NC(N)=O
dose: 50.0 mg/kg/injection, schedule: Q01DX005 (ip), vehicle: DMSO
  T/C: 121 % of control
dose: 100.0 mg/kg/injection, schedule: Q01DX005 (ip), vehicle: DMSO
  T/C: 119 % of control
dose: 100.0 mg/kg/injection, schedule: Q01DX005 (ip), vehicle: other
  T/C: 121 % of control
dose: 200.0 mg/kg/injection, schedule: Q01DX005 (ip), vehicle: DMSO
  T/C: 114 % of control
dose: 400.0 mg/kg/injection, schedule: Q01DX005 (ip), vehicle: DMSO
  T/C: 124 % of control

## CCN(CC)CCN=c1c(C)nc(C#N)c(N)n1O
dose: 10.0 mg/kg/injection, schedule: Q01DX009 (ip), vehicle: saline with Tween-80
  T/C: 100 % of control and 102 % of control and 105 % of control
dose: 20.0 mg/kg/injection, schedule: Q01DX009 (ip), vehicle: saline with Tween-80
  T/C: 100 % of control and 118 % of control and 96 % of control
dose: 40.0 mg/kg/injection, schedule: Q01DX009 (ip), vehicle: saline with Tween-80
  T/C: 98 % of control and 103 % of control
dose: 80.0 mg/kg/injection, schedule: Q01DX009 (ip), vehicle: saline with Tween-80
  T/C: 98 % of control and 106 % of control

## C=C1C(=O)C(CCC)=C(CC)C1O (stereo not drawn)
[11]
  T/C: 105 % of control

## CN(C)c1ccc(Sc2ccc3nc(N)nc(N)c3c2)cc1
dose: 50.0 mg/kg/injection, schedule: Q01DX009 (ip), vehicle: saline with Tween-80
  T/C: 95 % of control
dose: 200.0 mg/kg/injection, schedule: Q01DX009 (ip), vehicle: saline with Tween-80
  T/C: 174 % of control
dose: 400.0 mg/kg/injection, schedule: Q01DX009 (ip), vehicle: saline with Tween-80
  T/C: 117 % of control

## OCCN(CCCN(CCO)C(=S)S)C(=S)S.[Cu+2]
dose: 12.5 mg/kg/injection, schedule: Q01DX005 (ip), vehicle: saline + Tween-80 + alcohol
  T/C: 98 % of control
dose: 25.0 mg/kg/injection, schedule: Q01DX005 (ip), vehicle: saline + Tween-80 + alcohol
  T/C: 99 % of control
dose: 50.0 mg/kg/injection, schedule: Q01DX005 (ip), vehicle: saline + Tween-80 + alcohol
  T/C: 102 % of control and 104 % of control

## CC(C)NC(C)C(C)c1ccccc1 (stereo not drawn)
dose: 25.0 mg/kg/injection, schedule: Q04DX003 (ip), vehicle: saline
  T/C: 99 % of control
dose: 50.0 mg/kg/injection, schedule: Q01DX001 (ip), vehicle: saline
  T/C: 94 % of control
dose: 50.0 mg/kg/injection, schedule: Q04DX003 (ip), vehicle: saline
  T/C: 100 % of control
dose: 100.0 mg/kg/injection, schedule: Q01DX001 (ip), vehicle: saline
  T/C: 96 % of control
[12]
  T/C: 93 % of control

## Cc1nc2ccncn2n1
[12]
  T/C: 99 % of control
dose: 200.0 mg/kg/injection, schedule: Q04DX003 (ip), vehicle: saline
  T/C: 95 % of control
dose: 400.0 mg/kg/injection, schedule: Q04DX003 (ip), vehicle: saline
  T/C: 93 % of control

## O=C(NC(Cc1ccc(O)cc1)C(=O)O)C(=O)c1c[nH]c2ccccc12 (stereo not drawn)
[11]
  T/C: 96 % of control
dose: 120.0 mg/kg/injection, schedule: Q01DX005 (ip), vehicle: saline with Tween-80
  T/C: 97 % of control
dose: 240.0 mg/kg/injection, schedule: Q01DX005 (ip), vehicle: saline with Tween-80
  T/C: 100 % of control

## O=c1ccn(C2OC(COC(c3ccccc3)(c3ccccc3)c3ccccc3)C(O)C2OC(c2ccccc2)(c2ccccc2)c2ccccc2)c(=O)[nH]1 (stereo not drawn)
[9]
  T/C: 97 % of control
[6]
  T/C: 99 % of control
[7]
  T/C: 94 % of control
[8]
  T/C: 93 % of control

## Oc1ccccc1C=NCCC[OH2+].Oc1ccccc1C=NCCC[OH2+].[Cu].[Cu]
[10]
  T/C: 103 % of control
[1]
  T/C: 100 % of control and 102 % of control and 104 % of control
[2]
  T/C: 109 % of control
